Results reported in patent US20240217918A1 (APNIMED, INC. (DELAWARE), priority 2021, published 2024).

Test: Gravimetric vapor sorption (GVS)
Type: physicochemical
Conditions: 25° C.
Method: GVS experiments were conducted on a Surface Measurement Systems DVS-Advantage. The experiments were performed at 25° C. The instrument was operated in step mode and the relative humidity was increased in 10% RH increments from 0% RH to 90% RH with an extra step at 75% RH, then decreased from 90% RH to 0% RH with an extra step at 75% RH. The mass equilibrium criterion was set at 0.005% change in mass over time (dm/dt). A minimum step time of 15 minutes and a maximum step time of 240 minutes were specified.

hygroscopicity (GVS, 0-90% RH): non-hygroscopic solid
moisture uptake (GVS, between 0-90% RH): 0.1%
change in crystal form after the GVS test (after GVS cycle 0-90-0% RH): No change in crystal form was observed
Compound: CCN(CC)CC#CCOC(=O)[C@](O)(c1ccccc1)C1CCCCC1 [Form A, (R)-oxybutynin D-malate]
